Test results published in ChEMBL document CHEMBL1641464, “1-(Arylsulfonyl)-2,3-dihydro-1H-quinolin-4-one derivatives as 5-HT(6) serotonin receptor ligands” (Bioorg Med Chem Lett, 2011).

Molecular target: D(3) dopamine receptor (Homo sapiens, UniProt P35462)
Experiment: Displacement of [3H]spiperone from human dopamine D3 receptor expressed in cells
Format: cell-based
Details: not given

Chain of D(3) dopamine receptor (P35462 whole entry): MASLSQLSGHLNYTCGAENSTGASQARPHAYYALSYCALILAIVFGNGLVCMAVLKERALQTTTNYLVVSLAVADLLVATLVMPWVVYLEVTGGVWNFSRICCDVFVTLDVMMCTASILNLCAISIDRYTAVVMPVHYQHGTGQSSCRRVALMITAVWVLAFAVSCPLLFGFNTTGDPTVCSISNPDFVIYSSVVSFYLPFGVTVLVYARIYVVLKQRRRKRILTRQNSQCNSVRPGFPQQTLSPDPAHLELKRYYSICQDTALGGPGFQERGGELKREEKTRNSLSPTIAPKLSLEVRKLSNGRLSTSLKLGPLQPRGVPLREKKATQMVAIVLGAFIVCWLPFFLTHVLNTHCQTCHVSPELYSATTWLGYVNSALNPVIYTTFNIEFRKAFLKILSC

IC50 [nM]	Compound
1300	CN1CCN(c2ccc3c(c2)N(S(=O)(=O)c2ccc4ccccc4c2)CCC3=O)CC1
2920	CN1CCN(c2cccc3c2C(=O)CCN3S(=O)(=O)c2ccc3ccccc3c2)CC1
1520	CC1CC(=O)c2ccc(N3CCN(C)CC3)cc2N1S(=O)(=O)c1ccc2ccccc2c1 (stereo not given)
482	CC1CC(=O)c2c(N3CCN(C)CC3)cccc2N1S(=O)(=O)c1ccc2ccccc2c1 (stereo not given)
623	CCC1CC(=O)c2c(N3CCN(C)CC3)cccc2N1S(=O)(=O)c1ccc2ccccc2c1 (stereo not given)
180	Cc1cc(N2CCN(C)CC2)c2c(c1)N(S(=O)(=O)c1ccc3ccccc3c1)C(C)CC2=O (stereo not given)

Tested on: not listed separately
Experiment: Lipophilicity, log D of the compound
Format: physicochemical
Details: octanol/water

logD	Compound
3.2	CC1CC(=O)c2ccc(N3CCN(C)CC3)cc2N1S(=O)(=O)c1ccc2ccccc2c1 (stereo not given)
3.6	CC1CC(=O)c2c(N3CCN(C)CC3)cccc2N1S(=O)(=O)c1ccc2ccccc2c1 (stereo not given)
2.99	COc1ccc(NS(=O)(=O)c2sc3ccc(Cl)cc3c2C)cc1N1CCN(C)CC1

Molecular target: D(2) dopamine receptor (Homo sapiens, UniProt P14416)
Experiment: Displacement of [3H]spiperone from human dopamine D2 receptor expressed in cells
Format: cell-based
Details: not given

Chain of D(2) dopamine receptor (P14416 whole entry): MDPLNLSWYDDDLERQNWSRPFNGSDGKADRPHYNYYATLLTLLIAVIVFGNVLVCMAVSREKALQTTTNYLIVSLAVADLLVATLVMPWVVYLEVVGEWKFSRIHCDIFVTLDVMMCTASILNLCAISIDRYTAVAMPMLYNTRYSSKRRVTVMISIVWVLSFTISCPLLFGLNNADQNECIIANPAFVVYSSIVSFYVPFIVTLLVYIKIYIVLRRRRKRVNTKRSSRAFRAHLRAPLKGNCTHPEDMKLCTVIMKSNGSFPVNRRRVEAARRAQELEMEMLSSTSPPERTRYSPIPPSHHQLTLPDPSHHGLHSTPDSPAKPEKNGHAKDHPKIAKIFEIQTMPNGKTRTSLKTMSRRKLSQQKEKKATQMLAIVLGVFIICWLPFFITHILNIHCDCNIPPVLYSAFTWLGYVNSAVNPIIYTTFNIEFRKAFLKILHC

IC50 [nM]	Compound
> 10000	CN1CCN(c2ccc3c(c2)N(S(=O)(=O)c2ccc4ccccc4c2)CCC3=O)CC1
> 10000	CN1CCN(c2cccc3c2C(=O)CCN3S(=O)(=O)c2ccc3ccccc3c2)CC1
136	CC1CC(=O)c2ccc(N3CCN(C)CC3)cc2N1S(=O)(=O)c1ccc2ccccc2c1 (stereo not given)
> 10000	CC1CC(=O)c2c(N3CCN(C)CC3)cccc2N1S(=O)(=O)c1ccc2ccccc2c1 (stereo not given)
> 1000	CCC1CC(=O)c2c(N3CCN(C)CC3)cccc2N1S(=O)(=O)c1ccc2ccccc2c1 (stereo not given)
1780	Cc1cc(N2CCN(C)CC2)c2c(c1)N(S(=O)(=O)c1ccc3ccccc3c1)C(C)CC2=O (stereo not given)

Molecular target: T1, 5-hydroxytryptamine receptor 6 (Homo sapiens, UniProt P50406)
Experiment: Antagonist activity at human 5HT6 receptor expressed in HeLa cells assessed as inhibition of 5-HT-stimulated cAMP accumulation
Format: functional, cell-based
Details: not given

T1 sequence (P50406 whole entry): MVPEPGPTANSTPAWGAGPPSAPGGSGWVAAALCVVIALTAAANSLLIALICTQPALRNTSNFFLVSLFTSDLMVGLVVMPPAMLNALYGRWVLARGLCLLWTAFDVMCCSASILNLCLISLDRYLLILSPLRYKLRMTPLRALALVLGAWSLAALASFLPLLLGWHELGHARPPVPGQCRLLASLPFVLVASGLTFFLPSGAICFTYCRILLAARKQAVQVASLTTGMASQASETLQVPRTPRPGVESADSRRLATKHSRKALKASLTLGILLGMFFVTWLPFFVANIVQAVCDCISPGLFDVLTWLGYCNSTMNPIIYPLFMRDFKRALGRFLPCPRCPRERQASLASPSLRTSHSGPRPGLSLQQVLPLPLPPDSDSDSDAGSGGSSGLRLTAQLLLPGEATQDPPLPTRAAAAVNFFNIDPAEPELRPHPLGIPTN

IC50 [nM]	Compound
188	CN1CCN(c2ccc3c(c2)N(S(=O)(=O)c2ccc4ccccc4c2)CCC3=O)CC1

Molecular target: T2, D(4) dopamine receptor (Homo sapiens, UniProt P21917)
T2 sequence (P21917 whole entry): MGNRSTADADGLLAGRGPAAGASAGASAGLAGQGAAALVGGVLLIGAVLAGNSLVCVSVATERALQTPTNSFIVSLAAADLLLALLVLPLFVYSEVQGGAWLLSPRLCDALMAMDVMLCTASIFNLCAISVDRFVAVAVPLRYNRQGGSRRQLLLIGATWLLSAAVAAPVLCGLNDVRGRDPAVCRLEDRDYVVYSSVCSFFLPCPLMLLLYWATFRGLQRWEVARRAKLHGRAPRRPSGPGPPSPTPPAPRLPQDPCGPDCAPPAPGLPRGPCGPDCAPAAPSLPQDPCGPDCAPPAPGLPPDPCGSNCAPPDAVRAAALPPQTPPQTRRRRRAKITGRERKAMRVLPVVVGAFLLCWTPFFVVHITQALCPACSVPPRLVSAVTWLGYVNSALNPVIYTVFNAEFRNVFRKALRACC
Experiment: Displacement of [3H]spiperone from human dopamine D4 receptor expressed in cells
Format: cell-based
Details: not given

IC50 [µM]	Compound
3.61	CN1CCN(c2ccc3c(c2)N(S(=O)(=O)c2ccc4ccccc4c2)CCC3=O)CC1
1.79	CN1CCN(c2cccc3c2C(=O)CCN3S(=O)(=O)c2ccc3ccccc3c2)CC1
> 10	CC1CC(=O)c2ccc(N3CCN(C)CC3)cc2N1S(=O)(=O)c1ccc2ccccc2c1 (stereo not given)
5.52	CC1CC(=O)c2c(N3CCN(C)CC3)cccc2N1S(=O)(=O)c1ccc2ccccc2c1 (stereo not given)
> 10	CCC1CC(=O)c2c(N3CCN(C)CC3)cccc2N1S(=O)(=O)c1ccc2ccccc2c1 (stereo not given)
> 10	Cc1cc(N2CCN(C)CC2)c2c(c1)N(S(=O)(=O)c1ccc3ccccc3c1)C(C)CC2=O (stereo not given)

Molecular target: T1, 5-hydroxytryptamine receptor 6
Experiment: Displacement of [3H]LSD from human 5HT6 receptor expressed in HEK293 cells
Format: cell-based
Details: not given

IC50 [nM]	Compound
129	Cc1ccc(S(=O)(=O)N2CCC(=O)c3c(N4CCN(C)CC4)cccc32)cc1
311	CN1CCN(c2ccc3c(c2)C(=O)CCN3S(=O)(=O)c2ccc3ccccc3c2)CC1
26	CN1CCN(c2ccc3c(c2)N(S(=O)(=O)c2ccc4ccccc4c2)CCC3=O)CC1
61	CN1CCN(c2cccc3c2C(=O)CCN3S(=O)(=O)c2ccc3ccccc3c2)CC1
28	CC1CC(=O)c2ccc(N3CCN(C)CC3)cc2N1S(=O)(=O)c1ccc2ccccc2c1 (stereo not given)
43	C[C@@H]1CC(=O)c2ccc(N3CCN(C)CC3)cc2N1S(=O)(=O)c1ccc2ccccc2c1
17	C[C@H]1CC(=O)c2ccc(N3CCN(C)CC3)cc2N1S(=O)(=O)c1ccc2ccccc2c1
165	COc1cc2c(cc1N1CCN(C)CC1)N(S(=O)(=O)c1ccc3ccccc3c1)CCC2=O
419	Cc1c(S(=O)(=O)N2CCC(=O)c3ccc(N4CCN(C)CC4)cc32)sc2ccc(Cl)cc12
8	CC1CC(=O)c2c(N3CCN(C)CC3)cccc2N1S(=O)(=O)c1ccc2ccccc2c1 (stereo not given)
353	C[C@@H]1CC(=O)c2c(N3CCN(C)CC3)cccc2N1S(=O)(=O)c1ccc2ccccc2c1
7	C[C@H]1CC(=O)c2c(N3CCN(C)CC3)cccc2N1S(=O)(=O)c1ccc2ccccc2c1
9	CCC1CC(=O)c2c(N3CCN(C)CC3)cccc2N1S(=O)(=O)c1ccc2ccccc2c1 (stereo not given)
15	Cc1ccc2c(c1N1CCN(C)CC1)C(=O)CC(C)N2S(=O)(=O)c1ccc2ccccc2c1 (stereo not given)
11	Cc1cc(N2CCN(C)CC2)c2c(c1)N(S(=O)(=O)c1ccc3ccccc3c1)C(C)CC2=O (stereo not given)
47	CN1CCN(c2cc(Cl)cc3c2C(=O)CCN3S(=O)(=O)c2ccc3ccccc3c2)CC1
58	CN1CCN(c2cc(Br)cc3c2C(=O)CCN3S(=O)(=O)c2ccc3ccccc3c2)CC1
42	CC1CC(=O)c2c(N3CCNCC3)cccc2N1S(=O)(=O)c1ccc2ccccc2c1 (stereo not given)

Molecular target: 5-hydroxytryptamine receptor 2A (Homo sapiens, UniProt P28223)
Experiment: Displacement of [3H]ketanserin from human 5HT2A receptor expressed in cells
Format: cell-based
Details: not given

Chain of 5-hydroxytryptamine receptor 2A (P28223 whole entry): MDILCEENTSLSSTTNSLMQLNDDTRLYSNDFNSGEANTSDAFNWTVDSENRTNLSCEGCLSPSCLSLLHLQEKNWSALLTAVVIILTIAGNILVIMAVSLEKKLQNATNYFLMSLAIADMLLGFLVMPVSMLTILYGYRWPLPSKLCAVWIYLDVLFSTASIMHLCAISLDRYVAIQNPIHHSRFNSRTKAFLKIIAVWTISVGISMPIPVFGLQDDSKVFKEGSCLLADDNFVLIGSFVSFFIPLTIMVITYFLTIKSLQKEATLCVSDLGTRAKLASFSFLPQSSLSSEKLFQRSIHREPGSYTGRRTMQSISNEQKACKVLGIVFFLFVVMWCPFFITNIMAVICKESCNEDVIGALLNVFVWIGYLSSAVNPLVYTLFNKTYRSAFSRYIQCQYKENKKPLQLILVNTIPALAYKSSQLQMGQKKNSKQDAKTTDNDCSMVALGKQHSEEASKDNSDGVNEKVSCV

IC50 [nM]	Compound
366	CN1CCN(c2ccc3c(c2)N(S(=O)(=O)c2ccc4ccccc4c2)CCC3=O)CC1
760	CN1CCN(c2cccc3c2C(=O)CCN3S(=O)(=O)c2ccc3ccccc3c2)CC1
1460	CC1CC(=O)c2ccc(N3CCN(C)CC3)cc2N1S(=O)(=O)c1ccc2ccccc2c1 (stereo not given)
48	CC1CC(=O)c2c(N3CCN(C)CC3)cccc2N1S(=O)(=O)c1ccc2ccccc2c1 (stereo not given)
455	CCC1CC(=O)c2c(N3CCN(C)CC3)cccc2N1S(=O)(=O)c1ccc2ccccc2c1 (stereo not given)
704	Cc1cc(N2CCN(C)CC2)c2c(c1)N(S(=O)(=O)c1ccc3ccccc3c1)C(C)CC2=O (stereo not given)

Molecular target: T3, 5-hydroxytryptamine receptor 2C (Homo sapiens, UniProt P28335)
T3 sequence (P28335 whole entry): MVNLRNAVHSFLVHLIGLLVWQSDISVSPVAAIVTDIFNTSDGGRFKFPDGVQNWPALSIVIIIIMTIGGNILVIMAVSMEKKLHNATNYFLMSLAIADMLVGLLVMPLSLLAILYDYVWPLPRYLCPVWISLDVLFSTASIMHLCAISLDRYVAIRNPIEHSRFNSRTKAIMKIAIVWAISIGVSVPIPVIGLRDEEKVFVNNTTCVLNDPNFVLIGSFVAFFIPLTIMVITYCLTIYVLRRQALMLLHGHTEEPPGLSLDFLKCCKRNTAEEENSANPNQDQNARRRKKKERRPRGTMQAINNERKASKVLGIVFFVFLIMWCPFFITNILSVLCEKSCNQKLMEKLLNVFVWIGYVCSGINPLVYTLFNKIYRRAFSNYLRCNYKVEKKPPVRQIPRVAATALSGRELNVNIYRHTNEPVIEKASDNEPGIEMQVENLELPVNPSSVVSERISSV
Experiment: Displacement of [3H]mesulergine from human 5HT2C receptor expressed in cells
Format: cell-based
Details: not given

IC50 [nM]	Compound
5190	CN1CCN(c2ccc3c(c2)N(S(=O)(=O)c2ccc4ccccc4c2)CCC3=O)CC1
438	CN1CCN(c2cccc3c2C(=O)CCN3S(=O)(=O)c2ccc3ccccc3c2)CC1
558	CC1CC(=O)c2ccc(N3CCN(C)CC3)cc2N1S(=O)(=O)c1ccc2ccccc2c1 (stereo not given)
30	CC1CC(=O)c2c(N3CCN(C)CC3)cccc2N1S(=O)(=O)c1ccc2ccccc2c1 (stereo not given)
4	CCC1CC(=O)c2c(N3CCN(C)CC3)cccc2N1S(=O)(=O)c1ccc2ccccc2c1 (stereo not given)
19	Cc1cc(N2CCN(C)CC2)c2c(c1)N(S(=O)(=O)c1ccc3ccccc3c1)C(C)CC2=O (stereo not given)

Molecular target: 5-hydroxytryptamine receptor 7 (Homo sapiens, UniProt P34969)
Experiment: Displacement of [3H]LSD from human 5HT7 receptor expressed in cells
Format: cell-based
Details: not given

Chain of 5-hydroxytryptamine receptor 7 (P34969 whole entry): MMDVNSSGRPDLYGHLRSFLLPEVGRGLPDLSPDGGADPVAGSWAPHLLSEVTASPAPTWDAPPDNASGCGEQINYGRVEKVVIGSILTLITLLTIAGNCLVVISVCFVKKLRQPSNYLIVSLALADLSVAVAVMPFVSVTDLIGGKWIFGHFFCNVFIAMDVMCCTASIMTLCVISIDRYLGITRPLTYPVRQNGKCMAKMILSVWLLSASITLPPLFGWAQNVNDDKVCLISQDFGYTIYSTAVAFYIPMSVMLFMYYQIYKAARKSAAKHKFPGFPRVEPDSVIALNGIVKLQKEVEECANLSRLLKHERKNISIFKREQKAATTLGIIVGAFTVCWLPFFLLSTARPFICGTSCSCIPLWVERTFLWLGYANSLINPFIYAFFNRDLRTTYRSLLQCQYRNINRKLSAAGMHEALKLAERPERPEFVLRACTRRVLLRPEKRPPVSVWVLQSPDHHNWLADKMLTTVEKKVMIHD

IC50 [nM]	Compound
143	CN1CCN(c2ccc3c(c2)N(S(=O)(=O)c2ccc4ccccc4c2)CCC3=O)CC1
620	CN1CCN(c2cccc3c2C(=O)CCN3S(=O)(=O)c2ccc3ccccc3c2)CC1
> 10000	CC1CC(=O)c2ccc(N3CCN(C)CC3)cc2N1S(=O)(=O)c1ccc2ccccc2c1 (stereo not given)
2010	CC1CC(=O)c2c(N3CCN(C)CC3)cccc2N1S(=O)(=O)c1ccc2ccccc2c1 (stereo not given)
> 10000	CCC1CC(=O)c2c(N3CCN(C)CC3)cccc2N1S(=O)(=O)c1ccc2ccccc2c1 (stereo not given)
> 10000	Cc1cc(N2CCN(C)CC2)c2c(c1)N(S(=O)(=O)c1ccc3ccccc3c1)C(C)CC2=O (stereo not given)

Molecular target: T1, 5-hydroxytryptamine receptor 6
Experiment: Binding affinity to 5HT6 receptor
Details: not given

Ki [nM]	Compound
2.51	CSc1nn2c(N3CCNCC3)c3c(nc2c1S(=O)(=O)c1ccccc1)CCC3

Molecular target: T4, 5-hydroxytryptamine receptor 1A (Homo sapiens, UniProt P08908)
T4 sequence (P08908 whole entry): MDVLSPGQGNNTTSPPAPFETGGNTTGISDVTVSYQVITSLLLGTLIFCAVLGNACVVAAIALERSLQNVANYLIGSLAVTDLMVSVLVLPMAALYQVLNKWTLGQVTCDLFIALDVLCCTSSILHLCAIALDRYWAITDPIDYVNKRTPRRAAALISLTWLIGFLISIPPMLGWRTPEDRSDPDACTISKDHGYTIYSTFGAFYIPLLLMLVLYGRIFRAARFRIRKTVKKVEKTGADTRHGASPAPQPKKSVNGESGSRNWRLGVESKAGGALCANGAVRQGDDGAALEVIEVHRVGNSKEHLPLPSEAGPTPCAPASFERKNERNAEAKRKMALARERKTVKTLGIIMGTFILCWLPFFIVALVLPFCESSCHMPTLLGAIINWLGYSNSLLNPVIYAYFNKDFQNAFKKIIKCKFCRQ
Experiment: Displacement of [3H]8-OH-DPAT from human 5HT1A receptor expressed in cells
Format: cell-based
Details: not given

IC50 [nM]	Compound
672	CN1CCN(c2ccc3c(c2)N(S(=O)(=O)c2ccc4ccccc4c2)CCC3=O)CC1
333	CN1CCN(c2cccc3c2C(=O)CCN3S(=O)(=O)c2ccc3ccccc3c2)CC1
1600	CC1CC(=O)c2ccc(N3CCN(C)CC3)cc2N1S(=O)(=O)c1ccc2ccccc2c1 (stereo not given)
1210	CC1CC(=O)c2c(N3CCN(C)CC3)cccc2N1S(=O)(=O)c1ccc2ccccc2c1 (stereo not given)
999	CCC1CC(=O)c2c(N3CCN(C)CC3)cccc2N1S(=O)(=O)c1ccc2ccccc2c1 (stereo not given)
1230	Cc1cc(N2CCN(C)CC2)c2c(c1)N(S(=O)(=O)c1ccc3ccccc3c1)C(C)CC2=O (stereo not given)
